Laboratory results as given in ChEMBL document CHEMBL1150029, “QSAR of HIV inhibitors” (Bioorg Med Chem Lett, 1992).
Where “and” joins values, the source holds several entries; their conditions need not be identical. Equal entries are not always repeated. Calls of active or inactive are those of the source. The rule behind the calls is not given here.

Each molecule was assayed on ATH-8 cell line (assay: Compound was tested for % Protection of ATH8 cells from HIV infection by 2 pM concentration of nucleoside; inactive). Settings: Homo sapiens.
Assay type: functional, cell-based

SMILES | Log
OCC1CCC(n2cnc3c(S)ncnc32)O1 (stereo unspecified) | inactive

These molecules were tested on MT4 (assay: Tested for 50% protection of MT-4 cells from HIV infection). Settings: not given.
Assay type: functional

SMILES | Log 1/C
Cc1cc(C)cc(Sc2c(C(C)C)c(=O)[nH]c(=S)n2COCCO)c1 | 8.3
Cc1c(Sc2cccc([N+](=O)[O-])c2)n(COCCO)c(=O)[nH]c1=O | 4.47
CCCc1c(Sc2ccccc2)n(COCCO)c(=S)[nH]c1=O | 5
Cc1c(Sc2cccc(I)c2)n(COCCO)c(=O)[nH]c1=O | 5
Cc1c(Sc2cccc(Br)c2)n(COCCO)c(=O)[nH]c1=O | 5.24
Cc1c(Sc2cccc(O)c2)n(COCCO)c(=O)[nH]c1=O | 4.09
CCc1c(Sc2cc(C)cc(C)c2)n(COCCO)c(=S)[nH]c1=O | 8.11
Cc1c(Sc2cccc(C(C)(C)C)c2)n(COCCO)c(=O)[nH]c1=O | 4.92
Cc1c(Sc2cccc(F)c2)n(COCCO)c(=O)[nH]c1=O | 5.48
COc1ccccc1Sc1c(C)c(=O)[nH]c(=O)n1COCCO | 4.72
CCc1cccc(Sc2c(C)c(=O)[nH]c(=O)n2COCCO)c1 | 5.57
Cc1c(Sc2ccccc2[N+](=O)[O-])n(COCCO)c(=O)[nH]c1=O | 3.85
C=CCc1c(Sc2ccccc2)n(COCCO)c(=O)[nH]c1=O | 5.6
CCc1c(Sc2ccccc2)n(COCCO)c(=O)[nH]c1=O | 6.92 and 6.96
COc1cccc(Sc2c(C)c(=O)[nH]c(=O)n2COCCO)c1 | 4.66
CCc1c(Sc2cc(Cl)cc(Cl)c2)n(COCCO)c(=O)[nH]c1=O | 7.85
CCCc1c(Sc2ccccc2)n(COCCO)c(=O)[nH]c1=O | 5.47
CCc1c(Sc2cc(Cl)cc(Cl)c2)n(COCCO)c(=S)[nH]c1=O | 7.37
Cc1cccc(Sc2c(C)c(=O)[nH]c(=O)n2COCCO)c1 | 5.59
Cc1cc(C)cc(Sc2c(C)c(=O)[nH]c(=S)n2COCCO)c1 | 6.66
Cc1c(Sc2cccc(C(F)(F)F)c2)n(COCCO)c(=O)[nH]c1=O | 4.35
Cc1ccc(Sc2c(C)c(=O)[nH]c(=O)n2COCCO)cc1 | 3.66
CC(C)c1c(Sc2ccccc2)n(COCCO)c(=S)[nH]c1=O | 7.23
COC(=O)c1cccc(Sc2c(C)c(=O)[nH]c(=O)n2COCCO)c1 | 5.1
Cc1ccccc1Sc1c(C)c(=O)[nH]c(=O)n1COCCO | 4.15
COCc1cccc(Sc2c(C)c(=O)[nH]c(=O)n2COCCO)c1 | 5.14
Cc1c(Sc2cccc(C#N)c2)n(COCCO)c(=O)[nH]c1=O | 5
CC(C)c1c(Sc2ccccc2)n(COCCO)c(=O)[nH]c1=O | 7.2
Cc1c(Sc2cccc(Cl)c2)n(COCCO)c(=O)[nH]c1=O | 4.89

What follows are molecules tested on ATH-8 cell line (assay: Compound was tested for % Protection of ATH8 cells from HIV infection by 2 pM concentration of nucleoside). Settings: not given.
Assay type: functional, Homo sapiens

SMILES | Log
Nc1nc(Cl)nc2c1ncn2C1CCC(CO)O1 (stereo unspecified) | 0%
